Experiment: Accumulation rate in popliteal lymph nodes after subcutaneous plantar administration
Assay type: in vivo, mouse
Details: 24 hours after subcutaneous plantar administration, 13 nmol dye
Protocol: PNP10 prepared in EXAMPLE 10 was administered subcutaneously into the plantar surface of a mouse. Extirpation was performed 24 hours after administration. After homogenization, extraction was performed with an organic solvent to measure the accumulation rate in the popliteal lymph nodes. The amount administered was 13 nmol in terms of the amount of the dye. As a comparative example, an aqueous solution of ICG was also administered, and the accumulation rate was measured. The accumulation rate of PNP10 in the lymph nodes was about 80 times higher than that of ICG.

## CC1(C)C(/C=C/C=C/C=C/C=C2\N(CCCCS(=O)(=O)O)c3ccc4ccccc4c3C2(C)C)=[N+](CCCCS(=O)(=O)[O-])c2ccc3ccccc3c21 [ICG, Indocyanine green]
  Accumulation rate in lymph node (% ID): 0.1 % ID

Source: patent publication US8974830B2, “Particles and contrast agent including the same for optical imaging” (Canon Kabushiki Kaisha, priority 2012, dated 2015)
